Laboratory results: US8455692B2, “Process for resolution of 1-(3-hydroxyphenyl)-2-methylamino ethanol” (Divi's Laboratories, Ltd., priority 2010, dated 2013)

Experiment: Solubility of phenylephrine base in water and methanol (Table 2)
Assay type: physicochemical
Description: One skilled in the art can improvise modifications to the above procedure in several aspects. For example it is possible to use the racemic phenylephrine hydrochloride salt, suspend it in methanol and add the requisite amount of alkali to liberate the free base before adding the R-naproxen to it. Phenylephrine base is not soluble in water but may be rendered soluble at a temperature above 80° and higher dilution but at lower dilution in hot methanol. Suitable combination of solvent, dilution and temperature may be chosen depending on the size of input. (See Table 2 below). R-naproxen may be added as a solution in methanol or as a solid to keep a low solvent ratio enabling better recovery of the salt.

## CNCC(O)c1cccc(O)c1 (racemic) [Phenylephrine base, 1-(3-hydroxyphenyl)-2-methylamino ethanol]
Methanol, 25-30° C., 1 g in 10 mL
  Solubility: Not soluble
Methanol, 25-30° C., 1 g in 30 mL
  Solubility: Not soluble
Methanol, 25-30° C., 1 g in 100 mL
  Solubility: Soluble
Methanol, 60-80° C., 1 g in 10 mL
  Solubility: Not soluble
Methanol, 60-80° C., 1 g in 30 mL
  Solubility: Soluble
Methanol, 60-80° C., 1 g in 100 mL
  Solubility: Soluble
Water, 25-30° C., 1 g in 10 mL
  Solubility: Not soluble
Water, 25-30° C., 1 g in 30 mL
  Solubility: Not soluble
Water, 25-30° C., 1 g in 100 mL
  Solubility: Not soluble
Water, 60-80° C., 1 g in 10 mL
  Solubility: Not soluble
Water, 60-80° C., 1 g in 30 mL
  Solubility: Not soluble
Water, 60-80° C., 1 g in 100 mL
  Solubility: Soluble
Water, 100° C., 1 g in 10 mL
  Solubility: Not soluble
Water, 100° C., 1 g in 30 mL
  Solubility: Soluble
Water, 100° C., 1 g in 100 mL
  Solubility: Soluble
water
  Solubility in water: not soluble
